Like-named read-outs stand apart in the source and are kept apart here.
Assays:
[1] = biological target: p38 MAP Kinase a (Homo sapiens (Human), UniProt Q16539); assay: p38 MAP kinase enzyme assay (radiometric filter-binding); format: biochemical
Procedure: The ability of compounds to inhibit p38 MAP a Kinase activity was measured in an assay performed by Upstate (Dundee UK). In a final reaction volume of 25 μL, p38 MAP Kinase a (5-10 mU) is incubated with 25 mM Tris pH 7.5, 0.002 mMEGTA, 0.33 mg/mL myelin basic protein, 10 mM MgAcetate and [g-33p-ATP] (specific activity approx. 500 cpm/pmol, concentration as required). The reaction is initiated by the addition of the MgATP mix. After incubation for 40 minutes at room temperature, the reaction is stopped by the addition of 5 μL of a 3% phosphoric acid solution. 10 μL of the reaction is then spotted onto a P30 filtermat and washed three times for 5 minutes in 75 mM phosphoric acid and once in methanol prior to drying and scintillation counting.
Duplicate data points are generated from a 1/3 log dilution series of a stock solution in DMSO. Nine dilutions steps are made from a top concentration of 10 μM, and a ‘no compound’ blank is included. The standard radiometric filter-binding assay is performed at an ATP concentration at, or close to, the Km. Data from scintillation counts are collected and subjected to free-fit analysis by Prism software.

[2] = tested on: THP-1 cells; assay: LPS-stimulation of THP-1 cells, TNF-α levels by ELISA; format: cell-based; conditions: Homo sapiens, THP-1; LPS 1 μg/ml, 6 hrs; read-out: C—ester TNF-alpha inhibition (THP-1 cells), IC50
Procedure: THP-1 cells were plated in 100 μl at a density of 4×10^4 cells/well in V-bottomed 96 well tissue culture treated plates and incubated at 37° C. in 5% CO2 for 16 hrs. 2 hrs after the addition of the inhibitor in 100 μl of tissue culture media, the cells were stimulated with LPS (E coli strain 005:B5, Sigma) at a final concentration of 1 μg/ml and incubated at 37° C. in 5% CO2 for 6 hrs. TNF-α levels were measured from cell-free supernatants by sandwich ELISA (R&D Systems #QTA00B).

[3] = tested on: human whole blood; assay: LPS-stimulation of human whole blood, TNF-α levels by ELISA; format: cell-based; conditions: for IC50: Homo sapiens, LPS 100 ng/ml, 6 hrs, read-out: D—ester TNF-alpha inhibition (human whole blood), IC50
Procedure: Whole blood was taken by venous puncture using heparinised vacutainers (Becton Dickinson) and diluted in an equal volume of RPMI1640 tissue culture media (Sigma). 100 μl was plated in V-bottomed 96 well tissue culture treated plates. 2 hrs after the addition of the inhibitor in 100 μl of RPMI1640 media, the blood was stimulated with LPS (E coli strain 005:B5, Sigma) at a final concentration of 100 ng/ml and incubated at 37° C. in 5% CO2 for 6 hrs. TNF-α levels were measured from cell-free supernatants by sandwich ELISA (R&D Systems #QTA00B).

[4] = Plasma exposure in mice; format: in vivo; conditions: mouse, po 10 mg/kg, male CD1 mice
Procedure: The compounds were formulated in 8% DMSO, 92% 11.25% hydroxypropyl-β-cyclodextrin in water using the following procedure: the compounds were fully dissolved in 100% DMSO and then the hydroxypropyl-β-cyclodextrin solution added. The fine precipitate formed was re-dissolved by the addition of aqueous HCl and the pH adjusted to 4 with aqueous sodium hydroxide.
Each compound was administered orally at 10 mg/kg, in a total dose volume of 5 ml/kg, to male CD1 mice ([…]). Three mice were used for each time point. Blood samples were taken at the following time points: 5, 15, 30, 60, 120, 240 and 360 minutes, by terminal cardiac puncture, under halothane/isofluorane anaesthesia. Blood samples were collected into pre-chilled tubes containing NaF/EDTA and mixed. Samples were spun at 7-7.5×g for 2 minutes. The plasma was aspirated and frozen.
Plasma samples were prepared by precipitation of protein using three volumes of acetonitrile containing the internal standard. The supernatants were analysed by LCMS (Sciex API 3000, HP1100 binary pump, CTC PAL). The chromatography was based on an Acentis C8 (50×2.1 mm) column and a mobile phase of 5-95% acetonitrile in water/0.1% formic acid.
Exposure (AUC) was calculated from the plasma concentration versus time profile using PK Solutions 2.0 (Summit Research Services, Montrose, Colo.).

[5] = corresponding acid (hydrolysis product of the named ester) tested, read-out: B—acid enzyme assay (p38 kinase A (invitrogen)), IC50
[6] = ester tested, read-out: A—ester enzyme assay (p38 kinase A (invitrogen)), IC50

Chain of p38 MAP Kinase a (Q16539 whole entry): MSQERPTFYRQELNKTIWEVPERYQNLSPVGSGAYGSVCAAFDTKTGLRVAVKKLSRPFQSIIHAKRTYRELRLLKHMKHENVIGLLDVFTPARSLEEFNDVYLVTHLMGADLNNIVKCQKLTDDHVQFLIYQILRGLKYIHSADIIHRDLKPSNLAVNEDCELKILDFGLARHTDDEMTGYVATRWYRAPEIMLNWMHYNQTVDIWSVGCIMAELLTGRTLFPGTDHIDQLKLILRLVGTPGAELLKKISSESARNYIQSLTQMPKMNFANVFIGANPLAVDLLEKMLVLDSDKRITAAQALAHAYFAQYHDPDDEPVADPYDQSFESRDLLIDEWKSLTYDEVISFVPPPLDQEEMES

| IC50 [1, 5] | IC50 [1, 6] | IC50 [2] | IC50 [3] | AUC(0-t) [4] | Compound | D—ester TNF-alpha inhibition (human whole blood), % at single concentration ([3]; @ 10 μm) |
| --- | --- | --- | --- | --- | --- | --- |
| 1 nM | 231 nM | 0.5 nM | 54 nM | 14 ng·h/mL | CC(C)C[C@H](NCCc1cc(F)c(-n2c(N)c(C(=O)c3ccc(F)cc3F)ccc2=O)c(F)c1)C(=O)OC1CCCC1 [cyclopentyl N-(2-{4-[6-amino-5-(2,4-difluoro-benzoyl)-2-oxopyridin-1(2H)-yl]-3,5-difluoro-phenyl}ethyl)-L-leucinate] | – |
| 1 nM | 12 nM | 1.6 nM | 26 nM | 102 ng·h/mL | C[C@H](NCCc1cc(F)c(-n2c(N)c(C(=O)c3ccc(F)cc3F)ccc2=O)c(F)c1)C(=O)OC(C)(C)C [tert-Butyl N-(2-{4-[6-amino-5-(2,4-difluorobenzoyl)-2-oxopyridin-1(2H)-yl]-3,5-difluorophenyl}ethyl)-L-alaninate] | – |
| 118 nM | 724 nM | 19 nM | 947 nM | – | CC(C)C[C@H](NCCc1ccc(-n2c(N)c(C(=O)c3ccc(F)cc3)ccc2=O)cc1)C(=O)OC(C)(C)C [tert-Butyl N-[2-(4-{6-amino-5-[(4-fluoro-phenyl)carbonyl]-2-oxopyridin-1(2H)-yl}phenyl)ethyl]-L-leucinate] | – |
| 2 nM | 167 nM | 81 nM | – | – | CC(C)C[C@@H](NCCc1cc(F)c(-n2c(N)c(C(=O)c3ccc(F)cc3F)ccc2=O)c(F)c1)C(=O)OC(C)(C)C [tert-butyl N-(2-{4-[6-amino-5-(2,4-difluoro-benzoyl)-2-oxopyridin-1(2H)-yl]-3,5-difluoro-phenyl}ethyl)-D-leucinate] | 0% @ 10 μm |
| 1 nM | 120 nM | 3 nM | 191 nM | 75 ng·h/mL | CC(C)C[C@H](NCCc1cc(F)c(-n2c(N)c(C(=O)c3ccc(F)cc3F)ccc2=O)c(F)c1)C(=O)OC(C)(C)C [tert-butyl N-(2-{4-[6-amino-5-(2,4-difluoro-benzoyl)-2-oxopyridin-1(2H)-yl]-3,5-difluorophenyl}ethyl)-L-leucinate] | – |
| 58 nM | 58 nM | 2.8 nM | 195 nM | – | C[C@H](NCCc1ccc(-n2c(N)c(C(=O)c3ccc(F)cc3F)ccc2=O)cc1)C(=O)OC(C)(C)C [tert-butyl N-[2-(4-{6-amino-5-[(2,4-difluoro-phenyl)carbonyl]-2-oxopyridin-1(2H)-yl}phenyl)ethyl]-L-alaninate] | – |
